Source: PubChem BioAssay (NCI)
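A five-concentration, 48-hour dose response in 96-well plates underlies each endpoint, interpolated linearly between surrounding concentrations. The concentration for full growth arrest is given as TGI.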

Columns and labels:
Test in all cases: NCI tumour cell line growth inhibition, 48 h
[1] = tested on: 786-0 renal
[2] = tested on: A498 renal
[3] = tested on: A549 NSCLC
[4] = tested on: ACHN renal
[5] = tested on: BT-549 breast
[6] = tested on: CAKI-1 renal
[7] = tested on: CCRF-CEM leukemia
[8] = tested on: COLO 205 colon
[9] = tested on: DLD-1 colon
[10] = tested on: DMS 273 small cell lung
[11] = tested on: DU-145 prostate
[12] = tested on: EKVX NSCLC
[13] = tested on: HCC-2998 colon
[14] = tested on: HCT-116 colon
[15] = tested on: HCT-15 colon
[16] = tested on: HL-60(TB) leukemia
[17] = tested on: HOP-18 NSCLC
[18] = tested on: HOP-62 NSCLC
[19] = tested on: HOP-92 NSCLC
[20] = tested on: HS 578T breast
[21] = tested on: HT29 colon
[22] = tested on: IGROV1 ovarian
[23] = tested on: K-562 leukemia
[24] = tested on: KM12 colon
[25] = tested on: KM20L2 colon
[26] = tested on: LOX IMVI melanoma
[27] = tested on: LXFL 529 NSCLC
[28] = tested on: M14 melanoma
[29] = tested on: M19-MEL melanoma
[30] = tested on: MALME-3M melanoma
[31] = tested on: MCF7 breast
[32] = tested on: MDA-MB-231 breast
[33] = tested on: MDA-MB-435
[34] = tested on: MDA-N
[35] = tested on: MOLT-4 leukemia
[36] = tested on: NCI-H226 lung
[37] = tested on: NCI-H23 lung
[38] = tested on: NCI-H460 lung
[39] = tested on: NCI-H522 lung
[40] = tested on: NCI/ADR-RES ovarian
[41] = tested on: OVCAR-3 ovarian
[42] = tested on: OVCAR-4 ovarian
[43] = tested on: OVCAR-5 ovarian
[44] = tested on: OVCAR-8 ovarian
[45] = tested on: PC-3 prostate
[46] = tested on: RPMI-8226 leukemia
[47] = tested on: RXF 393 renal
[48] = tested on: RXF-631 renal
[49] = tested on: SF-268 CNS
[50] = tested on: SF-295 CNS
[51] = tested on: SF-539 CNS
[52] = tested on: SK-MEL-2 melanoma
[53] = tested on: SK-MEL-28 melanoma
[54] = tested on: SK-MEL-5 melanoma
[55] = tested on: SK-OV-3 ovarian
[56] = tested on: SN12C renal
[57] = tested on: SNB-19 CNS
[58] = tested on: SNB-75 CNS
[59] = tested on: SNB-78 CNS
[60] = tested on: SR leukemia
[61] = tested on: SW-620 colon
[62] = tested on: T-47D breast
[63] = tested on: TK-10 renal
[64] = tested on: U251 CNS
[65] = tested on: UACC-257 melanoma
[66] = tested on: UACC-62 melanoma
[67] = tested on: UO-31 renal
[68] = tested on: XF 498 CNS
[69] = tested on: DMS 114 small cell lung

For `COc1ccc2nc3cc(Cl)ccc3c(Nc3ccccc3-c3ccccc3Nc3c4ccc(Cl)cc4nc4ccc(OC)cc34)c2c1`, the TGI [1] was > 59 µM, the TGI [2] was 97.5 µM and the TGI [3] was > 100 µM. For the same molecule, the TGI [4] was > 59.2 µM, the TGI [5] was 42.2 µM and the TGI [6] was > 88.1 µM. For the same molecule, the TGI [7] was > 49.2 µM, the TGI [8] was > 88 µM and the TGI [9] was > 47.3 µM. The TGI [10] was > 54.9 µM, the TGI [11] was > 100 µM and the TGI [12] was > 100 µM. For the same molecule, the TGI [13] was > 67.5 µM, the TGI [14] was > 100 µM and the TGI [15] was > 66.9 µM. The TGI [16] was 16.8 µM, the TGI [17] was > 100 µM and the TGI [18] was > 94.9 µM. The TGI [19] was > 82.5 µM, the TGI [20] was > 100 µM and the TGI [21] was 55.7 µM. For the same molecule, the TGI [22] was > 71.1 µM, the TGI [23] was 59.3 µM and the TGI [24] was > 100 µM. For the same molecule, the TGI [25] was > 81.4 µM, the TGI [26] was 47.4 µM and the TGI [27] was > 50.5 µM. The TGI [28] was > 87.5 µM, the TGI [29] was > 93.3 µM and the TGI [30] was 68.6 µM. For the same molecule, the TGI [31] was > 100 µM, the TGI [32] was > 100 µM and the TGI [33] was > 100 µM. The TGI [34] was 24.7 µM, the TGI [35] was > 69.4 µM and the TGI [36] was > 73.4 µM. For the same molecule, the TGI [37] was > 100 µM, the TGI [38] was 98.9 µM and the TGI [39] was 32 µM. For the same molecule, the TGI [40] was > 100 µM, the TGI [41] was > 78.4 µM and the TGI [42] was 81.6 µM. For the same molecule, the TGI [43] was > 85.9 µM, the TGI [44] was > 100 µM and the TGI [45] was 63 µM. The TGI [46] was > 47.7 µM, the TGI [47] was > 53.5 µM and the TGI [48] was > 100 µM. For the same molecule, the TGI [49] was > 72.7 µM, the TGI [50] was > 76.2 µM and the TGI [51] was > 67.2 µM. For the same molecule, the TGI [52] was > 73.7 µM, the TGI [53] was > 86.6 µM and the TGI [54] was 30.7 µM. The TGI [55] was > 100 µM, the TGI [56] was > 84.4 µM and the TGI [57] was > 100 µM. For the same molecule, the TGI [58] was > 72 µM, the TGI [59] was > 100 µM and the TGI [60] was > 66.8 µM. The TGI [61] was > 68.2 µM, the TGI [62] was 75.4 µM and the TGI [63] was > 100 µM. The TGI [64] was > 93.5 µM, the TGI [65] was > 46.4 µM and the TGI [66] was > 66.3 µM. For the same molecule, the TGI [67] was > 100 µM and the TGI [68] was > 76.2 µM.

Molecule `Cn1c(=O)nc2n(-c3ccc(Br)cc3)c3ccccc3nc-2c1=O` has a TGI [1] of 22.3 µM, a TGI [2] of 26.9 µM and a TGI [3] of 15.1 µM. The TGI [4] was 13.2 µM, the TGI [6] was 33 µM and the TGI [7] was 19.9 µM. For the same molecule, the TGI [8] was 11.1 µM, the TGI [9] was 36.3 µM and the TGI [69] was 4.39 µM. For the same molecule, the TGI [10] was 14 µM, the TGI [12] was 7.3 µM and the TGI [13] was 10.8 µM. For the same molecule, the TGI [14] was 16.3 µM, the TGI [15] was 14.7 µM and the TGI [17] was 18.8 µM. It also gave a TGI [18] of 64.8 µM, a TGI [21] of 7.44 µM and a TGI [22] of 28 µM. The TGI [23] was 24 µM, the TGI [24] was 36.8 µM and the TGI [25] was 8.74 µM. For the same molecule, the TGI [27] was 25.4 µM, the TGI [28] was 15.5 µM and the TGI [29] was 2.93 µM. It also gave a TGI [30] of 12.7 µM, a TGI [35] of 28.7 µM and a TGI [36] of 28.5 µM. It also gave a TGI [37] of 4.2 µM, a TGI [38] of 11.9 µM and a TGI [39] of 18.4 µM. It also gave a TGI [41] of 7.6 µM, a TGI [42] of 14.6 µM and a TGI [43] of 26.4 µM. The TGI [44] was 18.3 µM, the TGI [46] was 28.8 µM and the TGI [47] was 29 µM. For the same molecule, the TGI [48] was 29.8 µM, the TGI [49] was 31 µM and the TGI [50] was 17 µM. It also gave a TGI [51] of 19.6 µM, a TGI [52] of 28.5 µM and a TGI [54] of 4.12 µM. For the same molecule, the TGI [55] was > 100 µM, the TGI [56] was 17.9 µM and the TGI [57] was 9.3 µM. For the same molecule, the TGI [58] was 19.4 µM, the TGI [59] was 35.1 µM and the TGI [61] was 6.57 µM. The TGI [63] was 32.8 µM, the TGI [64] was 19.9 µM and the TGI [65] was 6.79 µM. It also gave a TGI [66] of 3.01 µM, a TGI [67] of 37.9 µM and a TGI [68] of 25 µM.

For `COc1ccc(-c2cc(=O)c3c(O)c(O)c(OC)cc3o2)cc1O`, the TGI [1] was > 100 µM, the TGI [2] was > 100 µM and the TGI [3] was > 100 µM. For the same molecule, the TGI [4] was > 100 µM, the TGI [6] was > 100 µM and the TGI [7] was > 100 µM. For the same molecule, the TGI [8] was > 100 µM, the TGI [9] was > 100 µM and the TGI [10] was > 100 µM. The TGI [12] was > 100 µM, the TGI [13] was > 100 µM and the TGI [14] was > 100 µM. The TGI [15] was > 100 µM, the TGI [16] was > 100 µM and the TGI [17] was > 100 µM. The TGI [18] was > 100 µM, the TGI [19] was > 100 µM and the TGI [21] was > 100 µM. For the same molecule, the TGI [22] was > 100 µM, the TGI [23] was > 100 µM and the TGI [24] was > 100 µM. The TGI [25] was > 100 µM, the TGI [26] was > 100 µM and the TGI [27] was > 100 µM. For the same molecule, the TGI [28] was > 100 µM, the TGI [29] was > 100 µM and the TGI [30] was > 100 µM. For the same molecule, the TGI [35] was > 100 µM, the TGI [36] was > 100 µM and the TGI [37] was > 100 µM. For the same molecule, the TGI [38] was > 100 µM, the TGI [39] was > 100 µM and the TGI [41] was > 100 µM. For the same molecule, the TGI [42] was > 100 µM, the TGI [43] was > 100 µM and the TGI [44] was > 100 µM. For the same molecule, the TGI [46] was > 100 µM, the TGI [47] was > 100 µM and the TGI [48] was > 100 µM. The TGI [49] was > 100 µM, the TGI [50] was > 100 µM and the TGI [51] was > 100 µM. The TGI [52] was > 100 µM, the TGI [53] was > 100 µM and the TGI [54] was > 100 µM. The TGI [55] was > 100 µM, the TGI [56] was > 100 µM and the TGI [57] was > 100 µM. For the same molecule, the TGI [58] was > 100 µM, the TGI [60] was > 100 µM and the TGI [61] was > 100 µM. For the same molecule, the TGI [63] was > 100 µM, the TGI [64] was > 100 µM and the TGI [65] was > 100 µM. The TGI [66] was > 100 µM, the TGI [67] was > 100 µM and the TGI [68] was > 100 µM.
